# Measured values reported in US20050004167A1, “Branched chain amino acid-dependent aminotransferase inhibitors and their use in the treatment of neurodegenerative diseases” (WARNER-LAMBERT COMPANY LLC, priority 2001, published 2005).
# Several values for one entry are separate records, joined by “and”; a condition that tells them apart may be missing. Identical values can stand only once.
# Experiments:
# rat BCAT cytosolic form = biological target: T1, rat BCAT cytosolic form (Rattus norvegicus, UniProt P54690); assay: In vitro coupled enzyme assay (glutamate dehydrogenase, NADH formation), rat BCATc; format: biochemical; details: recombinant rat BCATc, 37° C., 25 mM phosphate buffer pH 7.8; several values in a cell = repeat determinations; read-out: RrBCATc
# T1 construct: made in house; host or cells: E. coli BL21(DE3)
# T1 sequence (P54690 1-411): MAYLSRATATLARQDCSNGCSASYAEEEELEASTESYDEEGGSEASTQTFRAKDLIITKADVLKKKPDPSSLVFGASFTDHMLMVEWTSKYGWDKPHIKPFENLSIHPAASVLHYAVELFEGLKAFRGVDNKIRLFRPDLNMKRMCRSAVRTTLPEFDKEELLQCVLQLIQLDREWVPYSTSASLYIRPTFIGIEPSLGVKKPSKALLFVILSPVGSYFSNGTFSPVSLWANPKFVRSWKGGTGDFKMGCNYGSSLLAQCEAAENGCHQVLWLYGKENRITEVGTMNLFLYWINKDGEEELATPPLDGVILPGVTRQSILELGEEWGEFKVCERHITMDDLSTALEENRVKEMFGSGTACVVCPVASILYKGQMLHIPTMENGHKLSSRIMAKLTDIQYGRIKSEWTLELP
# Method: (§1) In vitro enzyme assay—human Branched Chain Amino Acid Aminotransferase cytosolic form (hBCATc) and mitochondrial form (hBCATm) as well as rat BCAT cytosolic form were assayed at 37° C. in 25 mM phosphate buffer pH 7.8. In addition, 2 mM DTT and 12.5 mM […] were added to the assay mixture. A coupling enzyme assay was used to monitor the production of glutamate. The formation of NADH from NAD+ at […] was followed on a 96-well plate Molecular Devices plate reader.
# (§2) The following components were used in this coupled assay: 4 mM ADP, 1 mM NAD+, 750 μM L-Leucine, 500 μM α-ketoglutarate, 10 μM pyridoxal phosphate, 1 unit glutamate dehydrogenase, and 1.25 μg of the appropriate BCAT enzyme. Inhibitions by compounds were assayed by adding various concentrations to this coupled assay procedure as a DMSO stock up to a 5% v/v DMSO/buffer ratio.
# (§3) Enzyme Preparation—humanBCATc and ratBCATc were expressed in BL21(DE3) cells. A growing culture of cells was induced with 1 mM IPTG at room temperature overnight. These cells were harvested by centrifugation at 10,000 g for 20 minutes. The supernatant was discarded, and the cells were stored at −80° C. until needed. The protein was purified by the following method. The cell paste was resuspended in extraction buffer (0.1 M phosphate, pH 8.0, with 0.01 M Tris-HCL and 5 mM TCEP and then lysed on a French Press at 1000 psi. The lysate was centrifuged at 10,000 g for 15 minutes, and the pellet was discarded. The supernatant was loaded onto a Hitrap Chelating column previously charged with 0.1 M NiSO4 and washed with 3 to 4 column volumes of extraction buffer. The column was then washed with 0.01 Tris, pH 7.5, 10% glycerol, 150 mM NaCl, 5 mM TCEP for two column volumes. The column was then further washed with two column volumes of 0.1 M phosphate, pH 6.0, 0.01 M Tris, 10% glycerol and 750 mM NaCl. Finally, the column was washed with two column volumes of the same buffer plus 50 mM imidazole. The BCAT enzyme was then eluted with the same buffer but with 350 mM imidazole. The eluant was then dialyzed overnight against 10 mM phosphate buffer pH 8.0, 10% glycerol, and 5 mM TCEP. The dialyzed protein was then loaded onto a Q-sepharose column and eluted using a salt gradient. Active fractions were collected and further purified on a Superose-12 column to yield pure BCAT protein.
# [1] = biological target: T2, human Branched Chain Amino Acid Aminotransferase cytosolic form (hBCATc) (Homo sapiens, UniProt P54687); assay: In vitro coupled enzyme assay (glutamate dehydrogenase, NADH formation), human BCATc; format: biochemical; details: recombinant human BCATc, 37° C., 25 mM phosphate buffer pH 7.8; several values in a cell = repeat determinations; read-out: RhBCATc
# T2 construct: made in house; host or cells: E. coli BL21(DE3)
# T2 sequence (P54687 1-386): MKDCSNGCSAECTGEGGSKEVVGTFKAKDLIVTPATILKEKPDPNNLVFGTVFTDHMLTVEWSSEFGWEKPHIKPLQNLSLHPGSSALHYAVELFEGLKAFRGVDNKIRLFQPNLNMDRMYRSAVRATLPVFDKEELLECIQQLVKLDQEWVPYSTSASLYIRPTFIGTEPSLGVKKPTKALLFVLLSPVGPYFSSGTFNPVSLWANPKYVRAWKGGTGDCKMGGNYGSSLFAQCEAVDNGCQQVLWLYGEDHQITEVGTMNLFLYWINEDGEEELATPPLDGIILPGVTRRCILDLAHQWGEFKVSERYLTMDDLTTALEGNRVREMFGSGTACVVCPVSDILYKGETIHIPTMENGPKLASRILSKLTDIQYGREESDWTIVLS
# Method: as §1, §2, §3
SMILES,IC50 (rat BCAT cytosolic form) [µM],IC50 [1],melting point [°C]
"CCc1ccc(S(=O)(=O)NNC(=O)c2cc3cccc(OC)c3o2)cc1 [Example 108, 2-Benzofurancarboxylic acid, 7-methoxy-, 2-[(4-ethylphenyl)sulfonyl]hydrazide]",5.6,57 µM,–
"O=C(NNS(=O)(=O)c1ccccc1OC(F)(F)F)c1ccc2oc3ccccc3c2c1 [Example 98, 2-Dibenzofurancarboxylic acid, 2-[(2-trifluoromethoxyphenyl)sulfonyl]hydrazide]",0.65,2.8 µM,–
"COc1cccc2cc(C(=O)NNS(=O)(=O)c3cccc(Cl)c3Cl)oc12 [Example 104, 2-Benzofurancarboxylic acid, 7-methoxy-, 2-[(2,3-dichlorophenyl)sulfonyl]-hydrazide]",1.4,23 µM,–
"COc1cccc2cc(C(=O)NNS(=O)(=O)c3ccc(F)c(Cl)c3)oc12 [Example 105, 2-Benzofurancarboxylic acid, 7-methoxy-, 2-[(3-chloro-4-fluorophenyl)sulfonyl]-hydrazide]",3.3,54 µM,–
"O=C(NNS(=O)(=O)c1ccccc1)c1ccnc2ccccc12 [Example 155, Quinoline-4-carboxylic acid 2-(phenylsulfonyl)hydrazide]",–,> 100 µM,153 to 156
"Cc1c(C(=O)NNS(=O)(=O)c2ccccc2)oc2ccc(Cl)cc12 [Example 90, 2-Benzofurancarboxylic acid, 5-chloro-3-methyl, 2-(phenylsulfonyl)hydrazide]",> 100,> 100 µM,–
"O=C(O)c1ccc(S(=O)(=O)NNC(=O)c2ccc3oc4ccccc4c3c2)cc1 [Example 101, 2-Dibenzofurancarboxylic acid, 2-[(4-carboxyphenyl)sulfonyl]hydrazide]",22,48.1 µM,–
O=C(NNS(=O)(=O)c1ccc(C(F)(F)F)cc1)c1ccc2ccccc2c1 [Example 114],26.5,59.7 µM,–
"COc1c(C(=O)NNS(=O)(=O)c2ccccc2)oc2c(-c3ccccc3)cccc12 [Example 67, 2-Benzofurancarboxylic acid, 3-methoxy-7-phenyl-, 2-(phenylsulfonyl)hydrazide]",2.4,17.3 µM,–
"O=C(NNS(=O)(=O)c1ccccc1)c1cc2cc(NS(=O)(=O)c3ccccc3)ccc2o1 [Example 157, 2-Benzofurancarboxylic acid, 5-(phenylsulfonylamino)-, 2-(phenylsulfonyl)hydrazide]",–,8.7 µM,261.5 to 261.8
"O=C(NNS(=O)(=O)c1ccccc1Br)c1cc2cc(Cl)ccc2o1 [Example 44, 2-Benzofurancarboxylic acid, 5-chloro-2-[(2-bromophenyl)sulfonyl]hydrazide]",–,3.44 µM,206.4 to 207.3
"CS(=O)(=O)Nc1ccc2oc(C(=O)NNS(=O)(=O)c3ccccc3)cc2c1 [Example 158, 2-Benzofurancarboxylic acid, 5-(methylsulfonylamino)-, 2-(phenylsulfonyl)hydrazide]",–,26 µM,255.4 to 256.1
"O=C(NNS(=O)(=O)c1c(Cl)cccc1Cl)c1ccc2oc3ccccc3c2c1 [Example 28, 2-Dibenzofurancarboxylic acid 2-[(2,6-dichlorophenyl)sulfonyl]hydrazide]",–,> 100 µM,202 to 203
"Cc1ccccc1S(=O)(=O)NNC(=O)c1cc2cc(Cl)ccc2o1 [Example 46, 2-Benzofurancarboxylic acid, 5-chloro-2-[(2-methylphenyl)sulfonyl]hydrazide]",–,1.08 µM and 0.7 µM,190.5 to 192
"O=C(NNS(=O)(=O)c1cc(Cl)cc(Cl)c1)c1cnc2ccccc2c1 (hydrate or solvate) [Example 139, 3-Quinolinecarboxylic acid, 2-[(3,5-dichlorophenyl)sulfonyl]hydrazide]",–,–,241.3 to 241.9
"O=C(NNS(=O)(=O)c1ccccc1)c1cc2cccc(Cl)c2o1 [Example 148, 7-Chloro-benzofuran-2-carboxylic acid 2-(phenylsulfonyl)hydrazide]",–,–,223 to 224

# Other lines, results leading:
IC50 (rat BCAT cytosolic form) [µM],IC50 [1],melting point [°C],SMILES
0.39,15.7 µM,–,"O=C(NNS(=O)(=O)c1ccccc1)c1ccc2ncccc2c1 [Example 13, Quinoline-6-carboxylic acid 2-(phenylsulfonyl)hydrazide]"
–,> 100 µM,245 to 245.7,"O=C(NNS(=O)(=O)c1ccc(F)c(Cl)c1)c1cnc2ccccc2c1 [Example 141, 3-Quinolinecarboxylic acid, 2-[(3-chloro-4-fluorophenyl)sulfonyl]hydrazide]"
–,46 µM,201.9 to 202.7,"COc1cccc(S(=O)(=O)NNC(=O)c2ccc3ncccc3c2)c1 [Example 142, 6-Quinolinecarboxylic acid, 2-[(3-methoxyphenyl)sulfonyl]hydrazide]"
–,80 µM,231.5 to 232.3,"O=C(NNS(=O)(=O)c1cccc(Br)c1)c1cnc2ccccc2c1 [Example 145, 3-Quinolinecarboxylic acid, 2-[(3-bromophenyl)sulfonyl]hydrazide]"
–,80 µM,226.9 to 227.2,"COc1cccc(S(=O)(=O)NNC(=O)c2cnc3ccccc3c2)c1 [Example 143, 3-Quinolinecarboxylic acid, 2-[(3-methoxyphenyl)sulfonyl]hydrazide]"
–,> 100 µM,241.9 to 242.6,"O=C(NNS(=O)(=O)c1ccc(F)c(Cl)c1)c1ccc2ncccc2c1 [Example 140, 6-Quinolinecarboxylic acid, 2-[(3-chloro-4-fluorophenyl)sulfonyl]hydrazide]"
–,29 µM,216 to 216.8,"O=C(NNS(=O)(=O)c1cccc(Br)c1)c1ccc2ncccc2c1 [Example 144, 6-Quinolinecarboxylic acid, 2-[(3-bromophenyl)sulfonyl]hydrazide]"
–,17 µM,236.7 to 237.4,"O=C(NNS(=O)(=O)c1ccccc1C(F)(F)F)c1ccc2ncccc2c1 [Example 134, 6-Quinolinecarboxylic acid, 2-[(2-trifluoromethylphenyl)sulfonyl]hydrazide]"
–,40 µM,243.5 to 243.9,"O=C(NNS(=O)(=O)c1ccccc1OC(F)(F)F)c1ccc2ncccc2c1 [Example 136, 6-Quinolinecarboxylic acid, 2-[(2-trifluoromethoxyphenyl)sulfonyl]hydrazide]"
–,–,234 to 234.6,"Cc1cccc(S(=O)(=O)NNC(=O)c2ccc3ncccc3c2)c1 (hydrate or solvate) [Example 128, 6-Quinolinecarboxylic acid, 2-[(3-methylphenyl)sulfonyl]hydrazide]"
–,–,224.9 to 225.8,"COc1ccc2cc(C(=O)NNS(=O)(=O)c3ccccc3)oc2c1 (hydrate or solvate) [Example 56, 2-Benzofurancarboxylic acid, 6-methoxy-, 2-(phenylsulfonyl)hydrazide]"
